Assay results as given in PubChem BioAssay AID248 (DTP/NCI, 2004).
Where “and” joins values, the source holds several entries; their conditions need not be identical. Equal values may be shown once. Toxic doses and inconclusive results are not listed. No stated cut-off is given here; in the data, active means T/C of 150% or more; inactive means T/C below 125%.

Test system: L1210 leukemia ip in BDF1 mice, survival T/C
Test: NCI In Vivo Anticancer Drug Screen. Data for tumor model L1210 Leukemia (intraperitoneal) in B6D2F1 (BDF1) mice
Conditions: endpoint: mean survival time, higher = longer survival
Outline: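 Tumor cells were implanted, animals were treated, and survival was followed. The result divides the treated measurement by the vehicle-control measurement.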

[1] = dose: 100.0 mg/kg/injection, schedule: Q04DX003 (ip), vehicle: Klucel (hydroxypropylcellulose) (HPC)
[2] = dose: 200.0 mg/kg/injection, schedule: Q04DX003 (ip), vehicle: Klucel (hydroxypropylcellulose) (HPC)
[3] = dose: 400.0 mg/kg/injection, schedule: Q04DX003 (ip), vehicle: Klucel (hydroxypropylcellulose) (HPC)
[4] = dose: 50.0 mg/kg/injection, schedule: Q01DX001 (ip), vehicle: saline
[5] = dose: 100.0 mg/kg/injection, schedule: Q01DX001 (ip), vehicle: saline
[6] = dose: 200.0 mg/kg/injection, schedule: Q01DX001 (ip), vehicle: saline
[7] = dose: 400.0 mg/kg/injection, schedule: Q01DX001 (ip), vehicle: saline
[8] = dose: 100.0 mg/kg/injection, schedule: Q01DX009 (ip), vehicle: Klucel (hydroxypropylcellulose) (HPC)
[9] = dose: 200.0 mg/kg/injection, schedule: Q01DX009 (ip), vehicle: Klucel (hydroxypropylcellulose) (HPC)
[10] = dose: 100.0 mg/kg/injection, schedule: Q01DX009 (ip), vehicle: saline with Tween-80
[11] = dose: 200.0 mg/kg/injection, schedule: Q01DX009 (ip), vehicle: saline with Tween-80
[12] = dose: 400.0 mg/kg/injection, schedule: Q01DX009 (ip), vehicle: saline with Tween-80
[13] = dose: 400.0 mg/kg/injection, schedule: Q01DX009 (ip), vehicle: Klucel (hydroxypropylcellulose) (HPC)
[14] = dose: 100.0 mg/kg/injection, schedule: Q01DX001 (ip), vehicle: other
[15] = dose: 200.0 mg/kg/injection, schedule: Q01DX001 (ip), vehicle: other
[16] = dose: 400.0 mg/kg/injection, schedule: Q01DX001 (ip), vehicle: other
[17] = dose: 100.0 mg/kg/injection, schedule: Q01DX001 (ip), vehicle: carboxymethylcellulose (CMC)
[18] = dose: 200.0 mg/kg/injection, schedule: Q01DX001 (ip), vehicle: carboxymethylcellulose (CMC)
[19] = dose: 400.0 mg/kg/injection, schedule: Q01DX001 (ip), vehicle: carboxymethylcellulose (CMC)
[20] = dose: 50.0 mg/kg/injection, schedule: Q04DX003 (ip), vehicle: saline
[21] = dose: 12.5 mg/kg/injection, schedule: Q01DX009 (ip), vehicle: saline
[22] = dose: 12.5 mg/kg/injection, schedule: Q04DX003 (ip), vehicle: saline
[23] = dose: 25.0 mg/kg/injection, schedule: Q01DX009 (ip), vehicle: saline
[24] = dose: 25.0 mg/kg/injection, schedule: Q04DX003 (ip), vehicle: saline

Measured: T/C

Clc1ccccc1C=Nc1ccc2c(c1)Cc1ccccc1-2
inactive: dose: 100.0 mg/kg/injection, schedule: Q01DX001 (ip), vehicle: Klucel (hydroxypropylcellulose) (HPC) 87 % of control | [1] 101 % of control | dose: 200.0 mg/kg/injection, schedule: Q01DX001 (ip), vehicle: Klucel (hydroxypropylcellulose) (HPC) 93 % of control | [2] 94 % of control | dose: 400.0 mg/kg/injection, schedule: Q01DX001 (ip), vehicle: Klucel (hydroxypropylcellulose) (HPC) 87 % of control | [3] 101 % of control

CCCC(C)c1ccc(N=NC2C(=O)c3ccccc3C2=O)cc1 (stereo not drawn)
inactive: [4] 100 % of control | [5] 94 % of control | [6] 94 % of control | [7] 103 % of control

FC(F)(F)c1nc(S)cc(=S)[nH]1
inactive: dose: 50.0 mg/kg/injection, schedule: Q01DX Z (ip), vehicle: methylcellulose (MC) 96 % of control | dose: 100.0 mg/kg/injection, schedule: Q01DX Z (ip), vehicle: methylcellulose (MC) 93 % of control

COc1cc(/C=C(/C)[N+](=O)[O-])ccc1O
inactive: dose: 6.0 mg/kg/injection, schedule: Q01DX009 (ip), vehicle: carboxymethylcellulose (CMC) 112 % of control | dose: 12.0 mg/kg/injection, schedule: Q01DX009 (ip), vehicle: carboxymethylcellulose (CMC) 92 % of control | dose: 25.0 mg/kg/injection, schedule: Q01DX009 (ip), vehicle: Klucel (hydroxypropylcellulose) (HPC) 112 % of control | dose: 25.0 mg/kg/injection, schedule: Q01DX009 (ip), vehicle: carboxymethylcellulose (CMC) 105 % of control | dose: 50.0 mg/kg/injection, schedule: Q01DX009 (ip), vehicle: Klucel (hydroxypropylcellulose) (HPC) 100 % of control | dose: 50.0 mg/kg/injection, schedule: Q01DX009 (ip), vehicle: carboxymethylcellulose (CMC) 100 % of control and 103 % of control | dose: 50.0 mg/kg/injection, schedule: Q04DX003 (ip), vehicle: Klucel (hydroxypropylcellulose) (HPC) 97 % of control | [8] 109 % of control | [1] 105 % of control | [9] 103 % of control | [2] 103 % of control

COc1ccccc1N1C(=O)CSC1=S
inactive: [10] 102 % of control | [11] 106 % of control | [12] 100 % of control

C(=N\C(/N=C/c1ccccc1)c1ccccc1)/c1ccccc1
inactive: [8] 96 % of control | [1] 92 % of control | [9] 94 % of control | [2] 94 % of control | [13] 92 % of control | [3] 92 % of control

Oc1ccc(C/C=C/c2ccccc2)cc1
inactive: [10] 98 % of control | [11] 96 % of control | [12] 102 % of control

CS(=O)(=O)c1ccccc1
inactive: dose: 100.0 mg/kg/injection, schedule: Q04DX002 (ip), vehicle: Klucel (hydroxypropylcellulose) (HPC) 102 % of control | dose: 200.0 mg/kg/injection, schedule: Q04DX002 (ip), vehicle: Klucel (hydroxypropylcellulose) (HPC) 91 % of control | dose: 400.0 mg/kg/injection, schedule: Q04DX002 (ip), vehicle: Klucel (hydroxypropylcellulose) (HPC) 102 % of control

Cc1ccc(S(=O)(=O)OC2CCCC2OS(=O)(=O)c2ccc(C)cc2)cc1 (stereo not drawn)
inactive: [14] 96 % of control | [15] 95 % of control | [16] 91 % of control

O=c1cc(CC(O)(c2ccccc2)c2ccccc2)cc[nH]1
inactive: [5] 100 % of control | [6] 95 % of control | [7] 100 % of control

O=[N+]([O-])c1ccc(Cl)c(I)c1
inactive: dose: 12.5 mg/kg/injection, schedule: Q01DX009 (ip), vehicle: saline with Tween-80 94 % of control | dose: 25.0 mg/kg/injection, schedule: Q01DX009 (ip), vehicle: saline with Tween-80 94 % of control | dose: 50.0 mg/kg/injection, schedule: Q01DX009 (ip), vehicle: saline + alcohol 92 % of control | dose: 50.0 mg/kg/injection, schedule: Q01DX009 (ip), vehicle: saline with Tween-80 94 % of control | dose: 200.0 mg/kg/injection, schedule: Q01DX009 (ip), vehicle: saline + alcohol 92 % of control

O=[N+]([O-])c1ccc(-n2cnnn2)cc1
inactive: [17] 94 % of control | [18] 100 % of control | [19] 91 % of control

CN(C)C1CCc2c(ccc3ccccc23)C1=O (stereo not drawn)
inactive: dose: 25.0 mg/kg/injection, schedule: Q01DX001 (ip), vehicle: saline 99 % of control | [4] 99 % of control | [5] 100 % of control

CC(=O)NC1CCCC(C)N1 (stereo not drawn)
inactive: [20] 98 % of control | [5] 110 % of control | dose: 100.0 mg/kg/injection, schedule: Q04DX003 (ip), vehicle: saline 104 % of control | [6] 100 % of control | dose: 200.0 mg/kg/injection, schedule: Q04DX003 (ip), vehicle: saline 96 % of control

CSc1ccc(NC(=O)Nc2ccc(Cl)cc2Cl)cc1
inactive: [8] 93 % of control | [9] 88 % of control | [13] 88 % of control

C[S+](C)(=O)/C=C(\[O-])Nc1ccccc1
inactive: [8] 101 % of control | [1] 101 % of control | [9] 92 % of control | [2] 97 % of control | [13] 97 % of control | [3] 103 % of control

Cc1cc(C)c(O)c(C)c1C
inactive: [10] 104 % of control | [12] 95 % of control

O/N=C/C=N/O.O/N=C/C=N/O.[Pd]
inactive: dose: 1.56 mg/kg/injection, schedule: Q01DX009 (ip), vehicle: saline with Tween-80 110 % of control | dose: 3.13 mg/kg/injection, schedule: Q01DX009 (ip), vehicle: saline with Tween-80 97 % of control | dose: 6.25 mg/kg/injection, schedule: Q01DX009 (ip), vehicle: saline with Tween-80 112 % of control

C=CCCC1(Cc2ccccc2)C(=O)NC(=O)NC1=O
inactive: dose: 75.0 mg/kg/injection, schedule: Q01DX001 (ip), vehicle: saline 97 % of control | dose: 150.0 mg/kg/injection, schedule: Q01DX001 (ip), vehicle: saline 97 % of control

COc1cc(C2c3c(cc(OC)c(O)c3OC)C=C(C(=O)O)C2CO)cc(OC)c1O (stereo not drawn)
inactive: dose: 50.0 mg/kg/injection, schedule: Q01DX001 (ip), vehicle: carboxymethylcellulose (CMC) 94 % of control | [17] 102 % of control | [18] 96 % of control | [19] 91 % of control

CCCCCCP(C)(=O)CCCCCC
inactive: dose: 100.0 mg/kg/injection, schedule: Q01DX001 (ip), vehicle: saline with Tween-80 99 % of control

N=C1SCc2ccc3ccccc3c21
inactive: [14] 92 % of control | [15] 108 % of control | [16] 97 % of control

CC(C)(C)NCCCN1CC1(C)C (stereo not drawn)
inactive: dose: 6.25 mg/kg/injection, schedule: Q01DX009 (ip), vehicle: saline 90 % of control | dose: 6.25 mg/kg/injection, schedule: Q04DX003 (ip), vehicle: saline 103 % of control | [21] 93 % of control | [22] 114 % of control | [23] 93 % of control and 121 % of control | [24] 117 % of control | [5] 110 % of control

CC(=O)CC(=O)N1CCCCC1C (stereo not drawn)
inactive: [1] 104 % of control | [2] 101 % of control | [3] 97 % of control

COc1ccc(Cl)cc1NC(=O)C(Br)C(Br)C(=O)O (stereo not drawn)
inactive: dose: 100.0 mg/kg/injection, schedule: Q01DX009 (ip), vehicle: other 96 % of control | dose: 200.0 mg/kg/injection, schedule: Q01DX009 (ip), vehicle: other 100 % of control

Cc1ccc(S(=O)(=O)Oc2ccccc2C)cc1
inactive: [1] 97 % of control | [2] 103 % of control | [3] 103 % of control

c1ccc(C2OCCCOC2c2ccccc2)cc1 (stereo not drawn)
inactive: [17] 97 % of control | [18] 97 % of control | [19] 103 % of control

CCCCCCCCCCCCNC(=O)Nc1ccc(CC)cc1
inactive: [8] 87 % of control | [1] 97 % of control | [9] 94 % of control | [2] 96 % of control | [13] 93 % of control | [3] 101 % of control

CCCCSc1n[nH]c(=O)[nH]c1=S
inactive: [5] 91 % of control | [6] 96 % of control

O=C(CC(=O)C(F)(F)C(F)(F)C(F)(F)F)C(F)(F)F
inactive: [21] 107 % of control | [22] 102 % of control | [23] 88 % of control | [24] 87 % of control | [20] 93 % of control

CCCCOC(=O)CC(C(=O)OCCCC)S(=O)(=O)O (stereo not drawn)
inactive: [5] 96 % of control | [6] 104 % of control | [7] 101 % of control
